Laboratory results as given in patent US5462926A (Biomeasure, Inc., priority 1993, dated 1995).
Read-outs that look alike come from different tables or passages of the source. Where a SMILES comes first, the peptide text is derived from it. Bridges are numbered along the chain shown (N, C = ends). [ ]: non-standard residue; d: D form. 2Nal = N[C@@H](Cc1ccc2ccccc2c1)C(=O)O; d2Nal = N[C@H](Cc1ccc2ccccc2c1)C(=O)O; Lys(iPr) = CC(C)NCCCC[C@H](N)C(=O)O

Assays:
GRP receptor = GRP receptor (Rattus norvegicus, UniProt P52500); experiment: Amylase release from rat pancreatic acini (alone or Bn-stimulated); format: cell-based; parameters: from tissue; host or cells: dispersed pancreatic acini; settings: for Amylase Release, analog Alone (10 μM): analog 10 μM alone, control 4 ± 1; for Amylase Release, analog Plus Bn (0.3 nM): analog 10 μM plus Bn 0.3 nM, Bn without analog 15 ± 1; for IC50: read-out: IC50 Amylase Release, GRP Receptor, Rat Pancreatic Acini
Chain of GRP receptor (P52500 whole entry): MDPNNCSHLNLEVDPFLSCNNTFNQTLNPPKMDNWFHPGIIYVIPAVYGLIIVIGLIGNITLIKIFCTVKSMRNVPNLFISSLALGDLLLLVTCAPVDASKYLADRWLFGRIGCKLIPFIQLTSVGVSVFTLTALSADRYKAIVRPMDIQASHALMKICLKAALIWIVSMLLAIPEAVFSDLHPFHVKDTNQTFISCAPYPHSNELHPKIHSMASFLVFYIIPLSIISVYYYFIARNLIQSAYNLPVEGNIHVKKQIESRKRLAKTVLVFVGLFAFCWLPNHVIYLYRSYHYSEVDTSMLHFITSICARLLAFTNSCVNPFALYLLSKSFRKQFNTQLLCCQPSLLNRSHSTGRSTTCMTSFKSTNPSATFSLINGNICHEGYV
Method: pancreatic acini or [^3 H]myo[2H]inositolloaded NMBR transfected cell
were incubated either with no additives, the somatostatin octapeptide
analog, Bn, or NMB, or a combination for 30 min at 37° C.. Amylase
release from pancreatic acini was expressed at the indicated percent of
the total cellular amylase released during the incubation. [^3 H]IP i
expressed in dpm's. To test for inhibitory effects, the effect of
somatostatin analog (10 μM) was determined on 0.3 nM Bnstimulated

NMB receptor = target: T1, NMB receptor (Rattus norvegicus, UniProt P24053); experiment: [3H]inositol phosphates in NMB-R transfected cells (alone or NMB-stimulated); format: cell-based; parameters: a full length NMB-preferring bombesin receptor clone generated from rat esophagus; expressed in transfected cells; settings: NMB-R transfected cells; for [3H]IP, analog Alone (10 μM): analog 10 μM alone, control 13 ± 3; for [3H]IP, analog Plus NMB (3 nM): analog 10 μM plus NMB 3 nM, NMB without analog 186 ± 58; for effect at 10 μM on NMB-stimulated increase in [3H]IP / IC50: 3 nM NMB
T1 sequence (P24053 1-390): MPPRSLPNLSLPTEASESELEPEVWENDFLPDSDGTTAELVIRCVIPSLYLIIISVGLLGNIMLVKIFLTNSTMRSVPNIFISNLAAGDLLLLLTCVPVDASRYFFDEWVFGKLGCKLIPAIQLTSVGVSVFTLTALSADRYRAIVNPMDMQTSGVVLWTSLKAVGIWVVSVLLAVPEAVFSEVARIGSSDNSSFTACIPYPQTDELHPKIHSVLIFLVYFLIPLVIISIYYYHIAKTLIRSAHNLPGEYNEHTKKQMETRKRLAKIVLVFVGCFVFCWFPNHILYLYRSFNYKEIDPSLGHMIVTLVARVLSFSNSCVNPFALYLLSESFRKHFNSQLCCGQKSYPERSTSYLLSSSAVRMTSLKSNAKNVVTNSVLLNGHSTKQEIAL
Method: As described previously [Wada, E., et al. Neuron 6:421 (1991)], BALB 3T3 cells expressing a stably transfected rat NMB receptor (NMB-R transfected cells) were obtained using calcium phosphate precipitation of a full length NMB-preferring bombesin receptor clone generated from rat esophagus and subcloned into a modified version of the pCD2 plasmid. Cells were passaged every 3-4 days at confluence, using 0.1% trypsin in 1 mM EDTA. Rat glioblastoma C-6 tumor cells were maintained similarly and were passaged weekly at confluence. Both cell lines were cultured at 37° C. in a 5% CO2 atmosphere. Rat AR 42J pancreatic acinar cells were cultured in Dulbecco's modified Eagle's medium (DMEM) without antibiotics and supplemented with 10% (vol/vol) fetal calf serum. The incubation atmosphere consisted of 10% CO2 -90% humidified air at 37° C.
Measurement of phosphoinositides
Total phosphoinositides in C-6 cells and in NMB-R transfected cells were determined as described previously, with minor modifications [Benya, R. V. et al. Mol. Pharmacol. 42:1058 (1992); and Wang, L-H. et al. Biochem. Jo 286:641 (1992)]. Cells were grown to confluence in 24-well plates and then loaded with 100 μCi/ml myo-[2-^3 H]inositol in Dulbecco's modified essential medium with 2% fetal bovine serum at 37° C. for 48 hrs. Cells were washed and incubated in phosphoinositide buffer (standard buffer additionally containing 10 mM LiCl, 20 mM HEPES, 2 mM CaCl2, 2% BSA, and 1.2 mM MgSO4) for 15 min and then for 60 min at 37° C. with agonists at various concentrations or with 3 nM NMB (a half-maximal effective concentration) and possible antagonists at different concentrations. Reactions were halted using ice-cold 1% HCl in methanol, and the inositol phosphates (IP) were isolated as described previously [Bologna, M. et al. Cancer 63:1714 (1989); and Endo, T. et al. J. Endocrinolo 131:313 (1991)]. Briefly, after loading of the anion exchange column, free [^3 H]glycerophosphorylinositol was removed by washing with 5 mM disodium tetraborate in 60 mM sodium formate. Total [^3 H]inositol phosphates were then eluted using 100 mM formic acid in 1.0M ammonium formate as described previously [Benya, R. V. et al. Mol. Pharmacol. 42:1058 (1992); and Wang, L-H. et al. Biochem. J. 286:641 (1992 )].

rat NMB receptor = target: T2, rat NMB receptor (Rattus norvegicus, UniProt P24053); experiment: Binding of 125I-[D-Tyr0]NMB to NMB-R transfected BALB 3T3 cells; settings: for fold decrease in NMB receptor affinity compared with cyclo SS-octa (#1): structure-function comparison from Table 1
T2 construct: a full length NMB-preferring bombesin receptor clone generated from rat esophagus; expressed in transfected cells
T2 sequence (P24053 1-390): T1 sequence (P24053 1-390)
Method: Cells were passaged every 3-4 days at confluence, using 0.1% trypsin in 1 mM EDTA. Rat glioblastoma C-6 tumor cells were maintained similarly and were passaged weekly at confluence. Both cell lines were cultured at 37° C. in a 5% CO2 atmosphere. Rat AR 42J pancreatic acinar cells were cultured in Dulbecco's modified Eagle's medium (DMEM) without antibiotics and supplemented with 10% (vol/vol) fetal calf serum. The incubation atmosphere consisted of 10% CO2 -90% humidified air at 37° C.

[1] = target: T3, NMB receptors on C-6 cells (Rattus norvegicus, UniProt P24053); experiment: Binding of 125I-[D-Tyr0]NMB to C-6 glioblastoma cells; settings: Ki by Cheng method, read-out: Ki 125I-NMB Binding, NMB Receptor, C-6 Cells
T3 construct: endogenous in cells; host or cells: rat glioblastoma C-6 cells
T3 sequence (P24053 1-390): T1 sequence (P24053 1-390)
Method: Binding of ^125 I-[D-Tyr^0 ]NMB to C-6 glioblastoma and NMB-R transfected cells
Binding studies using rat glioblastoma C-6 or NMB-R transfected cells were performed as described previously [Benya, R. V. et al. Mol. Pharmacol. 42:1058 (1992); and Wang, L-H. et al. Biochem. J. 286:641 (1992)] by suspending disaggregated cells in binding buffer, which was composed of standing buffer ([…], 7.7 mM KCl, 1.0 mM EGTA, 0.02% soybean trypsin inhibitor) additionally containing 50 mM HEPES, 1 mM MgCl2, 1.5 mM CaCl2, 2.2 mM KH2 PO4, 0,015% glutamine, and 0.2% BSA (w/v) (pH 7.4). Incubations contained 75 pM ^125 I-[D-Tyr^0 ]NMB and 15×10^6 C-6 cells/ml or 2×10^6 NMB-R transfected cells/ml, for 60 min at 22° C. Nonsaturable binding of ^125 I-[D-Tyr^0 ]NMB was the amount of radioactivity associated with C-6 cells or NMB-R transfected cells when the incubation mixture contained […] NMB. Nonsaturable binding was<15% of total binding in all experiments; all values are reported herein as saturable binding (i.e., total minus nonsaturable binding).

[2] = target: T4, GRP receptors on rat pancreatic acini (Rattus norvegicus, UniProt P52500); experiment: Binding of 125I-[Tyr4]bombesin to pancreatic acini; settings: read-out: Ki 125I-[Tyr4]Bn Binding, GRP Receptor, Rat Pancreatic Acini; Ki by Cheng method
T4 construct: from tissue; host or cells: dispersed pancreatic acini
T4 sequence (P52500 whole entry): as the sequence (P52500 whole entry) above
Excerpt: Nonsaturable binding was<10% of total binding in all experiments.

[3] = read-out: IC50 NMB-stimulated [3H]IP, NMB Receptor, Transfected Cells
[4] = NMB-R transfected BALB 3T3 cells, Ki by Cheng method, read-out: Ki 125I-NMB Binding, NMB Receptor, Transfected Cells
[5] = NMB-R transfected cells, value or range given for a group, read-out: K1, 125I-NMB binding to NMB-R transfected cells (text)
[6] = read-out: IC50 NMB-stimulated [3H]IP, Transfected Cells (values in μM)

Row | SMILES | Amylase Release, analog Alone (10 μM) (GRP receptor) | Amylase Release, analog Plus Bn (0.3 nM) (GRP receptor) | [3H]IP, analog Alone (10 μM) (NMB receptor) | [3H]IP, analog Plus NMB (3 nM) (NMB receptor) | fold decrease in NMB receptor affinity compared with cyclo SS-octa (#1) (rat NMB receptor) | effect at 10 μM on NMB-stimulated increase in [3H]IP (NMB receptor) | fold by which cyclo SS-octa is more potent than the analog, 125I-NMB binding (rat NMB receptor; NMB-R transfected cells) | IC50 (GRP receptor) | IC50 (NMB receptor; [3]) | Ki (rat NMB receptor; [4]) | Ki (rat NMB receptor; [5]) | Ki [1] | Ki [2] | IC50 (NMB receptor; [6])
1 | NCCCC[C@@H]1NC(=O)[C@@H](Cc2c[nH]c3ccccc23)NC(=O)[C@H](Cc2ccc(O)cc2)NC(=O)[C@@H](NC(=O)[C@H](N)Cc2ccc3ccccc3c2)CSSC[C@@H](C(=O)N[C@@H](Cc2ccc3ccccc3c2)C(N)=O)NC(=O)[C@H](Cc2ccc3ccccc3c2)NC1=O [Analog #3, H2 -D-Nal-Cys-Tyr-D-Trp-Lys-Nal-Cys-Nal-NH2] (H-[d2Nal]CY[dW]K[2Nal]C[2Nal]-NH2; disulfide 2-7) | 3 ± 1 % total | 15 ± 1 % total | 11 ± 1 dym × 10^3 | 65 ± 15 dym × 10^3 | 2 to 3 fold | – | – | – | – | – | – | – | – | –
2 | CC(C)[C@@H]1NC(=O)[C@H](CCCCN)NC(=O)[C@@H](Cc2c[nH]c3ccccc23)NC(=O)[C@H](Cc2ccc(O)cc2)NC(=O)[C@@H](NC(=O)[C@H](N)Cc2ccc3ccccc3c2)CSSC[C@@H](C(=O)N[C@H](C(N)=O)[C@@H](C)O)NC1=O [Analog #5] | 3 ± 1 % total | 12 ± 1 % total | 11 ± 2 dym × 10^3 | 179 ± 13 dym × 10^3 | 80 fold | no effect | 69 fold | – | – | – | – | – | – | –
3 | C[C@@H](O)[C@H](NC(=O)[C@@H]1CSSC[C@H](NC(=O)[C@H](N)Cc2ccc3ccccc3c2)C(=O)N[C@@H](Cc2ccc(O)cc2)C(=O)N[C@H](Cc2c[nH]c3ccccc23)C(=O)N[C@@H](CCCCN)C(=O)N[C@@H]([C@@H](C)O)C(=O)N1)C(N)=O [Analog #6] | 3 ± 1 % total | 14 ± 2 % total | 11 ± 2 dym × 10^3 | 188 ± 30 dym × 10^3 | – | no effect | 69 fold | > 10 µM | > 10 µM | 16.4 ± 4.46 µM | 14 to 19 µM | 8.29 ± 2.43 µM | > 10 µM | –
4 | CC(C)NCCCC[C@@H]1NC(=O)[C@@H](Cc2c[nH]c3ccccc23)NC(=O)[C@H](Cc2ccc(O)cc2)NC(=O)[C@@H](NC(=O)[C@H](N)Cc2ccccc2)CSSC[C@@H](C(=O)N[C@@H](Cc2ccc3ccccc3c2)C(N)=O)NC(=O)[C@H]([C@@H](C)O)NC1=O [Analog #15, H2 -D-phe-Cys-Tyr-D-Trp-Lys(ipr)-Thr-Cys-Nal-NH2] (H-[dF]CY[dW][Lys(iPr)]TC[2Nal]-NH2; disulfide 2-7) | 4 ± 2 % total | 13 ± 2 % total | 11 ± 1 dym × 10^3 | 67 ± 7 dym × 10^3 | – | – | 9 fold | > 10 µM | 9.9 ± 2.31 µM | 2.33 ± 0.397 µM | 1.4 to 2.3 µM | 1.14 ± 0.105 µM | 38.1 ± 21.5 µM | 7.2 to 9.8 µM
5 | CC(C)[C@@H]1NC(=O)[C@H](CCCCN)NC(=O)[C@@H](Cc2c[nH]c3ccccc23)NC(=O)[C@H](Cc2ccc3ccccc3c2)NC(=O)[C@@H](NC(=O)[C@H](N)Cc2ccccc2)CSSC[C@@H](C(=O)N[C@H](C(N)=O)[C@@H](C)O)NC1=O [Analog #18] (H-[dF]C[2Nal][dW]KVCT-NH2; disulfide 2-7) | – | – | 11 ± 1 dym × 10^3 | 143 ± 11 dym × 10^3 | – | no effect | – | – | – | – | 14 to 19 µM | 8.32 ± 0.957 µM | – | > 10 µM
